Assay results as given in PubChem BioAssay AID2060909 (Molecular Pharmacology Branch, DTP, NCI, 2025).
pIC50: −log10 of the molar value. Values joined by “and” are separate entries in the source; they are usually repeats but may differ in a detail not shown here. Equal values may be shown once.

Tested on: 362531-283-R-J2-PDC complex spheroid viability
Assay: Anticancer human tumor 362531-283-R-J2-PDC patient-derived colon adenocarcinoma cell line growth inhibition [RAS]
Settings: for viability, T/C: stronger effect = lower value
Text: RAS pathway inhibitors in Combinations in Complex Spheroids
A high-throughput screen of multi-cell type tumor spheroids was designed to identify active combinations of RAS pathway inhibitors and targeted small molecules. Complex spheroids include a stromal component modeled by human endothelial cells (HUVEC) and fibroblasts modeled by human mesenchymal stem cells (MSCs). The concentration ranges selected for each drug and investigational agent were based upon clinically achievable concentrations if the clinical Cmax of the agent was known.
Compounds. The drugs and investigational agents: abemaciclib (NSC768073), cobimetinib (NSC768068), divarasib (GDC6063, NSC841802), docetaxel (NSC628503), GDC-1971 (RLY-1971, NSC841576), gemcitabine (NSC613327), inavolisib (NSC800729), ipatasertib (NSC767898), KB-0742 (NSC834161), MRTX-1133 (NSC836407), osimertinib (NSC779217), RMC-4630 (NSC839698), RMC-6236 (NSC851965), RMC-6291 (NSC852671), Ro-3306 (NSC812927), sapanisertib (NSC764658), SN-38 (NSC673596), staurosporine (NSC755774), SY5609 (NSC837396), and tovorafenib (DAY101, NSC766906), were obtained from the National Cancer Institute (NCI) Developmental Therapeutics Program Chemical Repository. The FDA-approved anticancer drug set is available from the NCI Developmental Therapeutics Program. […] The stock solutions were prepared in dimethyl sulfoxide (DMSO, Sigma-Aldrich, St. Louis, MO, cat. D2650) at 800-fold the tested concentration and stored at -70 degrees C prior to their use. All drugs and investigational agents were tested over a range starting from a high concentration at or near the clinical Cmax and decreasing in half-log increments. If the clinical Cmax for an agent had not been determined, the highest concentration tested was 10 microM.
Cell Culture. All cells were maintained in an incubator at 37 degrees C and 5% CO2 with 95% humidity. The PDC lines were cultured according to standard operating procedures established by the NCI PDMR. All PDCs were thawed and cultured in Matrigel-coated flasks prepared with a working solution of 1X Ham's F-12 nutrient mix, without supplementation (Invitrogen, Waltham, MA, cat. 11765054), 100 U/mL penicillin-streptomycin (Invitrogen, cat. 15140122), and 2.5% Matrigel (Corning Inc., Corning, NY, cat. 354248) for the first three passages. The 362531-283-R-J2-PDC and 782815-120-R-J1-PDC lines were cultured in 6C/Colon 1B media, which includes advanced DMEM/F-12 (Thermo Fisher Scientific, cat. 12634028), 10 mM HEPES (Thermo Fisher Scientific, cat. 15630080), 1X GlutaMAX supplement (Thermo Fisher Scientific, cat. 35050061), 0.1 mg/mL primocin (InvivoGen, San Diego, CA, cat. ant-pm-2), 10% defined fetal bovine serum, heat inactivated (HyClone Laboratories Inc., Logan, UT, cat. SH30070.03HI), 50% L-WRN conditioned media (ATCC, cat. CRL-3276), 1.25 mM N-Acetyl-L-cysteine (Sigma-Aldrich, cat. A9165), 10 mM nicotinamide (Sigma-Aldrich, cat. N0636), 1X B-27 supplement (Thermo Fisher Scientific, cat. 17504044), 1X N-2 supplement (Thermo Fisher Scientific, cat. 17502048), 50 ng/mL human EGF (Thermo Fisher Scientific, cat. PHG0311), and 10 microM Y-27632 dihydrochloride (Tocris Bioscience, cat. 1254). The K12877-001-R-J1-PDC line was cultured in 6I media, which includes all 6C/Colon 1B media plus 10 ng/mL human FGF-10 (PeproTech, cat. 100-26), 1 ng/mL human FGF-2 (PeproTech, cat. 100-18B), 1 µM prostaglandin E2 (Tocris Bioscience, cat. 2296), […] hydrocortisone (Sigma-Aldrich, cat. H4001), and […] bovine insulin (Sigma-Aldrich, cat. I6634). The K86415-001-R-J1-PDC line was cultured in 6D media, which includes all 6C/Colon 1B media components minus the L-WRN conditioned media. The 485176-168-R4-J1-PDC was cultured in PANC media, which includes all 6C/Colon 1B media plus 100 ng/mL human FGF-10 (PeproTech, cat. 100-26), 500 nM SB-431542 (Selleckchem, cat. S1067), and 10 nM gastrin (Tocris Bioscience, cat. 3006). […]

[1] = curve of first compound, second compound 0.000949 µM
[2] = curve of first compound, second compound 0.003 µM
[3] = curve of first compound, second compound 0.00949 µM
[4] = curve of first compound, second compound 0.03 µM
[5] = curve of first compound, second compound 0.0949 µM
[6] = curve of first compound, second compound 0.3 µM
[7] = second compound 0.000949 µM, first compound 0.0316 µM
[8] = second compound 0.000949 µM, first compound 0.1 µM
[9] = second compound 0.000949 µM, first compound 0.316 µM
[10] = second compound 0.000949 µM, first compound 1 µM
[11] = second compound 0.003 µM, first compound 0.0316 µM
[12] = second compound 0.003 µM, first compound 0.1 µM
[13] = second compound 0.003 µM, first compound 0.316 µM
[14] = second compound 0.003 µM, first compound 1 µM
[15] = second compound 0.00949 µM, first compound 0.0316 µM
[16] = second compound 0.00949 µM, first compound 0.1 µM
[17] = second compound 0.00949 µM, first compound 0.316 µM
[18] = second compound 0.00949 µM, first compound 1 µM
[19] = second compound 0.03 µM, first compound 0.0316 µM
[20] = second compound 0.03 µM, first compound 0.1 µM
[21] = second compound 0.03 µM, first compound 0.316 µM
[22] = second compound 0.03 µM, first compound 1 µM
[23] = second compound 0.0949 µM, first compound 0.0316 µM
[24] = second compound 0.0949 µM, first compound 0.1 µM
[25] = second compound 0.0949 µM, first compound 0.316 µM
[26] = second compound 0.0949 µM, first compound 1 µM
[27] = second compound 0.3 µM, first compound 0.0316 µM
[28] = second compound 0.3 µM, first compound 0.1 µM
[29] = second compound 0.3 µM, first compound 0.316 µM
[30] = second compound 0.3 µM, first compound 1 µM
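Note: spheroids exposed to the agents for 7 days before readout.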
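Throughout, for viability, T/C: luminescence viability as percent of DMSO vehicle control wells.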

Molecule `CC(=O)OC12COC1CC(O)C1(C)C(=O)C(O)C3=C(C)C(OC(=O)C(O)C(NC(=O)OC(C)(C)C)c4ccccc4)CC(O)(C(OC(=O)c4ccccc4)C21)C3(C)C` (centres undefined) + CCn1c(-c2cccnc2C(C)OC)c2c3cc(ccc31)N1CCOC(CC(NC(=O)C(C(C)C)N(C)C(=O)C3(F)CCN(C(=O)C#CC(C)(C)N(C)C)CC3)C(=O)N3CCCC(N3)C(=O)OCC(C)(C)C2)C1 has a pIC50 [1] of 6.63, a pIC50 [2] of 6.63 and a pIC50 [3] of 6.65. For the same molecule, the pIC50 [4] was 6.61, the pIC50 [5] was 6.63 and the pIC50 [6] was 6.64. It also gave a viability, T/C [7] of 98.1%, a viability, T/C [8] of 97.4% and a viability, T/C [9] of 33.3%. For the same molecule, the viability, T/C [10] was 19.5%, the viability, T/C (second compound 0.000949 µM, first compound 3.16 µM) was 23.1% and the viability, T/C (second compound 0.000949 µM, first compound 10 µM) was 38.4%. For the same molecule, the viability, T/C [11] was 102%, the viability, T/C [12] was 94.6% and the viability, T/C [13] was 34.7%. For the same molecule, the viability, T/C [14] was 16.6%, the viability, T/C (second compound 0.003 µM, first compound 3.16 µM) was 24.5% and the viability, T/C (second compound 0.003 µM, first compound 10 µM) was 38.4%. The viability, T/C [15] was 101%, the viability, T/C [16] was 95.4% and the viability, T/C [17] was 31.1%. For the same molecule, the viability, T/C [18] was 20%, the viability, T/C (second compound 0.00949 µM, first compound 3.16 µM) was 26% and the viability, T/C (second compound 0.00949 µM, first compound 10 µM) was 36.1%. It also gave a viability, T/C [19] of 93%, a viability, T/C [20] of 98% and a viability, T/C [21] of 36.5%. For the same molecule, the viability, T/C [22] was 17.7%, the viability, T/C (second compound 0.03 µM, first compound 3.16 µM) was 29.2% and the viability, T/C (second compound 0.03 µM, first compound 10 µM) was 34.1%. The viability, T/C [23] was 95.2%, the viability, T/C [24] was 92.7% and the viability, T/C [25] was 34.8%. For the same molecule, the viability, T/C [26] was 19%, the viability, T/C (second compound 0.0949 µM, first compound 3.16 µM) was 24.2% and the viability, T/C (second compound 0.0949 µM, first compound 10 µM) was 31.7%. The viability, T/C [27] was 105%, the viability, T/C [28] was 96.6% and the viability, T/C [29] was 31.9%. It also gave a viability, T/C [30] of 18.9%, a viability, T/C (second compound 0.3 µM, first compound 3.16 µM) of 22.5% and a viability, T/C (second compound 0.3 µM, first compound 10 µM) of 28.3%.

`CCN1CCN(Cc2ccc(Nc3ncc(F)c(-c4cc(F)c5nc(C)n(C(C)C)c5c4)n3)nc2)CC1` was tested, and the viability, T/C (compound 0.00316 µM) was 100% (2×) and 99.6% and 106%, the viability, T/C (compound 0.01 µM) was 95.9% [middle of 4 runs] and the viability, T/C (compound 0.1 µM) was 79.9% [middle of 4 runs]. For the same molecule, the viability, T/C (compound 0.316 µM) was 65.4% [middle of 4 runs] and the pIC50 (curve of compound) was less than 6.00.

For `CCN1CCN(Cc2ccc(Nc3ncc(F)c(-c4cc(F)c5nc(C)n(C(C)C)c5c4)n3)nc2)CC1` + CCn1c(-c2cc(N3CCN(C)CC3)cnc2C(C)OC)c2c3cc(ccc31)-c1csc(n1)CC(NC(=O)C1CC1C)C(=O)N1CCCC(N1)C(=O)OCC(C)(C)C2, the pIC50 [1] was 6.08, the pIC50 [2] was 6.15 and the pIC50 [3] was 6.33. For the same molecule, the pIC50 [4] was 6.51, the pIC50 [5] was 6.95 and the pIC50 [6] was greater than 8.50. For the same molecule, the viability, T/C (second compound 0.000949 µM, first compound 0.00316 µM) was 95.6%, the viability, T/C (second compound 0.000949 µM, first compound 0.01 µM) was 114% and the viability, T/C [7] was 99.2%. For the same molecule, the viability, T/C [8] was 90.4%, the viability, T/C [9] was 69.9% and the viability, T/C [10] was 46.1%. For the same molecule, the viability, T/C (second compound 0.003 µM, first compound 0.00316 µM) was 106%, the viability, T/C (second compound 0.003 µM, first compound 0.01 µM) was 110% and the viability, T/C [11] was 96.4%. The viability, T/C [12] was 87.8%, the viability, T/C [13] was 66.6% and the viability, T/C [14] was 43.1%. The viability, T/C (second compound 0.00949 µM, first compound 0.00316 µM) was 102%, the viability, T/C (second compound 0.00949 µM, first compound 0.01 µM) was 112% and the viability, T/C [15] was 105%. It also gave a viability, T/C [16] of 100%, a viability, T/C [17] of 61.4% and a viability, T/C [18] of 28.4%. For the same molecule, the viability, T/C (second compound 0.03 µM, first compound 0.00316 µM) was 102%, the viability, T/C (second compound 0.03 µM, first compound 0.01 µM) was 96.8% and the viability, T/C [19] was 93.2%. For the same molecule, the viability, T/C [20] was 73.5%, the viability, T/C [21] was 50.1% and the viability, T/C [22] was 15.2%. The viability, T/C (second compound 0.0949 µM, first compound 0.00316 µM) was 86.9%, the viability, T/C (second compound 0.0949 µM, first compound 0.01 µM) was 81% and the viability, T/C [23] was 81.7%. The viability, T/C [24] was 54.2%, the viability, T/C [25] was 10.9% and the viability, T/C [26] was 13.2%. For the same molecule, the viability, T/C (second compound 0.3 µM, first compound 0.00316 µM) was 48.4%, the viability, T/C (second compound 0.3 µM, first compound 0.01 µM) was 46.8% and the viability, T/C [27] was 40%. The viability, T/C [28] was 13.3%, the viability, T/C [29] was 6.94% and the viability, T/C [30] was 11.1%.
